Results from ChEMBL document CHEMBL1201862, “PubChem BioAssay data set” (2004).
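Test compounds were applied to cells in 96-well plates for 48 hours at 5 doses. Here, GI50 denotes the concentration required for 50% inhibition of growth.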 The source made the active and inactive calls. Cut-off read from the data, not from the text of the source: active = GI50 up to about 1.1 µM and inactive = higher.

Columns and labels:
Test in all cases: DTP human tumour cell line panel, 48 h
HOP-62 = tested on: HOP-62
HOP-92 = tested on: HOP-92
HT-29 = tested on: HT-29
Hs-578T = tested on: Hs-578T
KM12 = tested on: KM12
LOX IMVI = tested on: LOX IMVI
MCF7 = tested on: MCF7
Malme-3M = tested on: Malme-3M
NCI-H460 = tested on: NCI-H460
NCI-H522 = tested on: NCI-H522
OVCAR-4 = tested on: OVCAR-4
OVCAR-5 = tested on: OVCAR-5
PC-3 = tested on: PC-3
SK-MEL-2 = tested on: SK-MEL-2
SK-OV-3 = tested on: SK-OV-3
SR = tested on: SR
SW-620 = tested on: SW-620
TK-10 = tested on: TK-10
UACC-62 = tested on: UACC-62
NCI-H226 = tested on: NCI-H226

Measured: GI50

O=C(O)CSC1=NCCN1
inactive: HOP-62 > 100 µM | HOP-92 > 100 µM | HT-29 > 100 µM | Hs-578T > 100 µM | KM12 > 100 µM | LOX IMVI > 100 µM | MCF7 > 100 µM | Malme-3M > 100 µM | NCI-H460 > 100 µM | NCI-H522 > 100 µM | OVCAR-4 > 100 µM | OVCAR-5 > 100 µM | PC-3 > 100 µM | SK-MEL-2 > 100 µM | SK-OV-3 > 100 µM | SR > 100 µM | SW-620 > 100 µM | TK-10 > 100 µM | UACC-62 > 100 µM

CCOC(=O)c1c(-c2ccc(OC)cc2)c(C#N)c(=S)n(C2OC(CO)C(O)C(O)C2O)c1-c1ccccc1 (centres undefined)
inactive: HOP-62 25.4 µM | HOP-92 6.85 µM | HT-29 40.6 µM | Hs-578T 25.2 µM | KM12 51.2 µM | LOX IMVI 41.9 µM | MCF7 39.4 µM | Malme-3M 73.5 µM | NCI-H460 42.7 µM | OVCAR-4 34.3 µM | OVCAR-5 > 100 µM | PC-3 35.6 µM | SK-MEL-2 31.3 µM | SK-OV-3 90.6 µM | SR 54.7 µM | SW-620 36.1 µM | TK-10 55.6 µM | UACC-62 28.2 µM

O=Nn1c2ccccc2c2ccccc21
inactive: HOP-62 > 100 µM | HOP-92 66.2 µM | HT-29 50.2 µM | Hs-578T 46.2 µM | KM12 34.3 µM | LOX IMVI 48.1 µM | MCF7 45 µM | Malme-3M 93.3 µM | NCI-H226 55.5 µM | NCI-H460 9.86 µM | NCI-H522 38.6 µM | OVCAR-4 90.8 µM | OVCAR-5 > 100 µM | PC-3 42.8 µM | SK-MEL-2 61.7 µM | SK-OV-3 84.5 µM | SW-620 66.8 µM | TK-10 70.5 µM | UACC-62 45.7 µM

C(=N\c1ccc(-c2nc3ccccc3[nH]2)cc1)/c1ccc[nH]1
inactive: HOP-62 3.94 µM | HOP-92 > 100 µM | HT-29 78.5 µM | Hs-578T 4.3 µM | KM12 44.6 µM | LOX IMVI 76.6 µM | MCF7 25.7 µM | Malme-3M > 100 µM | NCI-H522 35 µM | OVCAR-4 54.2 µM | OVCAR-5 > 100 µM | PC-3 70.8 µM | SK-MEL-2 > 100 µM | SR 33.1 µM | SW-620 73.3 µM | TK-10 > 100 µM | UACC-62 55.3 µM

COc1cccc(C=C2N=C(C)N(n3c(-c4ccccc4)nc4ccccc4c3=O)C2=O)c1
inactive: HOP-62 > 100 µM | HT-29 > 100 µM | Hs-578T > 100 µM | KM12 > 100 µM | LOX IMVI > 100 µM | MCF7 83.4 µM | NCI-H226 > 100 µM | NCI-H460 > 100 µM | NCI-H522 > 100 µM | PC-3 > 100 µM | SK-OV-3 > 100 µM | SR 64.9 µM | SW-620 > 100 µM | TK-10 > 100 µM | UACC-62 > 100 µM

CC(N)(Cc1c[nH]c2ccccc12)C(=O)O (centres undefined)
inactive: HOP-62 > 100 µM | HT-29 > 100 µM | Hs-578T > 100 µM | KM12 > 100 µM | LOX IMVI > 100 µM | MCF7 > 100 µM | Malme-3M > 100 µM | NCI-H226 > 100 µM | NCI-H460 > 100 µM | NCI-H522 > 100 µM | OVCAR-4 > 100 µM | OVCAR-5 > 100 µM | PC-3 > 100 µM | SK-MEL-2 > 100 µM | SK-OV-3 > 100 µM | SR > 100 µM | SW-620 > 100 µM | TK-10 > 100 µM | UACC-62 > 100 µM

O=C1Oc2cc(O)cc(/C=C/c3ccc(O)cc3)c2[C@@]12c1c(O)cc(O)cc1OC2c1cccc(O)c1 (some centres undefined)
inactive: HOP-62 20.3 µM | HOP-92 31.2 µM | HT-29 29.2 µM | Hs-578T 20.5 µM | KM12 25.6 µM | LOX IMVI 23.3 µM | MCF7 39.1 µM | Malme-3M 33.4 µM | NCI-H226 11.1 µM | NCI-H460 20.9 µM | OVCAR-4 56.2 µM | OVCAR-5 29.2 µM | PC-3 30.9 µM | SK-MEL-2 24.2 µM | SK-OV-3 30.8 µM | SR 42.4 µM | TK-10 39.1 µM | UACC-62 25.3 µM

CCOP(=O)(OCC)C(C)(CC)N/C(=N\C1=NC(C(F)(F)F)(C(F)(F)F)N=C(C(F)(F)F)O1)NC(NC(C)=O)(C(F)(F)F)C(F)(F)F (centres undefined)
inactive: HOP-62 36.1 µM | HOP-92 9.95 µM | HT-29 20.7 µM | Hs-578T 31.8 µM | KM12 35 µM | LOX IMVI 32.2 µM | MCF7 21.9 µM | Malme-3M 22.1 µM | NCI-H226 22 µM | NCI-H460 35.3 µM | NCI-H522 27 µM | OVCAR-4 16.5 µM | OVCAR-5 45 µM | PC-3 21.2 µM | SK-MEL-2 25.5 µM | SK-OV-3 27.4 µM | SW-620 56.8 µM | TK-10 46.9 µM | UACC-62 35.3 µM
